Data taken from patent US11905252B2, “Compounds” (INFLAZOME LIMITED, priority 2018, dated 2024).

Target: T1, NLRP3 (Homo sapiens, UniProt Q96P20)
T1 construct: Seed THP-1 cells (25,000 cells/well) containing 1.0 μg/ml LPS; host or cells: THP-1 cells, LPS-primed, nigericin-stimulated
Experiment: THP-1 cells pyroptosis assay (LPS-primed, nigericin-stimulated, resazurin readout)
Format: cell-based
Details: 1 μg/ml LPS, 5 μM nigericin
Description: THP-1 cells (ATCC #TIB-202) were grown in RPMI containing L-glutamine (Gibco #11835) supplemented with 1 mM sodium pyruvate (Sigma #S8636) and penicillin (100 units/ml)/streptomycin (0.1 mg/ml) (Sigma #P4333) in 10% Fetal Bovine Serum (FBS) (Sigma #F0804). The cells were routinely passaged and grown to confluency (˜10^6 cells/ml). On the day of the experiment, THP-1 cells were harvested and resuspended into RPMI medium (without FBS). The cells were then counted and viability (>90%) checked by Trypan blue (Sigma #T8154). Appropriate dilutions were made to give a concentration of 625,000 cells/ml. To this diluted cell solution was added LPS (Sigma #L4524) to give a 1 μg/ml Final Assay Concentration (FAC). 40 μl of the final preparation was aliquoted into each well of a 96-well plate. The plate thus prepared was used for compound screening.
The following method step-by-step assay was followed for compound screening. • 1. Seed THP-1 cells (25,000 cells/well) containing 1.0 μg/ml LPS in 40 μl of RPMI medium (without FBS) in 96-well, black walled, clear bottom cell culture plates coated with poly-D-lysine (VWR #734-0317) • 2. Add 5 μl compound (8 points half-log dilution, with 10 μM top dose) or vehicle (DMSO 0.1% FAC) to the appropriate wells • 3. Incubate for 3 hrs at 37° C. in 5% CO2 • 4. […] Plates were read in an Envision reader at Ex 560 nm and Em 590 nm • 9. […]

T1 sequence (Q96P20 whole entry): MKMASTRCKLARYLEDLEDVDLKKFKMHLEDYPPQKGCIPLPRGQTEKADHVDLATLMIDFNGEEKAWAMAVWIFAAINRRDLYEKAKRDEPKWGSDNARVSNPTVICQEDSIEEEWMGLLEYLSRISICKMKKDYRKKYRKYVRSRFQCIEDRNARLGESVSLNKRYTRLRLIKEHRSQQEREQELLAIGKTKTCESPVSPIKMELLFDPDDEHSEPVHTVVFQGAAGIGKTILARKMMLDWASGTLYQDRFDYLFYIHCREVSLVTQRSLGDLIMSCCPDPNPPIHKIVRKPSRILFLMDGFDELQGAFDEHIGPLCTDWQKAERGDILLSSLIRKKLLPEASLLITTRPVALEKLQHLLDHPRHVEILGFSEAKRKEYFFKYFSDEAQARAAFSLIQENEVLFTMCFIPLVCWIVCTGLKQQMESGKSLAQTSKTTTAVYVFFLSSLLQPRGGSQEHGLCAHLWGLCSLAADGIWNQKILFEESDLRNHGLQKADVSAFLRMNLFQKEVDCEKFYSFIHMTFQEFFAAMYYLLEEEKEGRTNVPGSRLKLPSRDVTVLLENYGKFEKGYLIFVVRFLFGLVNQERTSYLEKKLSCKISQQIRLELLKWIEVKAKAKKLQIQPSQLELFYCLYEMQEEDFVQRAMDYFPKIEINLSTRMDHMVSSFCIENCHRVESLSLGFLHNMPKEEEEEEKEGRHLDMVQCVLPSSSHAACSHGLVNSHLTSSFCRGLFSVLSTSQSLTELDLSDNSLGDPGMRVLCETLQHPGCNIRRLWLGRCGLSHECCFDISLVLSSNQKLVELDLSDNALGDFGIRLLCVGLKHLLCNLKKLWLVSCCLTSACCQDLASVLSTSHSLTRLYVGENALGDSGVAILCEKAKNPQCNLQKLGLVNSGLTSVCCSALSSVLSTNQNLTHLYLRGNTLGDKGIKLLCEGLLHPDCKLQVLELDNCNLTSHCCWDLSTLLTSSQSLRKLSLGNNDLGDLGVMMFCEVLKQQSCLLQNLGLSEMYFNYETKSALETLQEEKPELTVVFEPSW

Cn1nc(S(=O)(=O)NC(=O)Nc2c3c(c(Br)c4c2CCC4)CCC3)cc1C(C)(C)O [Example 2, N-((8-Bromo-1,2,3,5,6,7-hexahydro-s-indacen-4-yl)carbamoyl)-5-(2-hydroxypropan-2-yl)-1-methyl-1H-pyrazole-3-sulfonamide]
IC50: ≤ 0.16 µM

Cn1nc(S(=O)(=O)NC(=O)Nc2c3c(c(C#N)c4c2CCC4)CCC3)cc1C(C)(C)O [Example 1, N-((8-Cyano-1,2,3,5,6,7-hexahydro-s-indacen-4-yl)carbamoyl)-5-(2-hydroxypropan-2-yl)-1-methyl-1H-pyrazole-3-sulfonamide]
IC50: 0.16 to 0.64 µM
